Measured values: US9676756B2 (PORTOLA PHARMACEUTICALS, INC., priority 2012, dated 2017)

Legend:
Assay type in all cases: biochemical
JAK3 = biological target: T1, JAK3 (Homo sapiens, UniProt P52333); test: JAK tyrosine phosphorylation activity, Z'-LYTE FRET kinase assay; settings: catalytic domain recombinant kinase, Tyr6 peptide
T1 construct: 5 μl of catalytic domain recombinant Kinase enzyme+Tyr peptide substrate (Invitrogen, CA); purchased Invitrogen
Protocol: (§1) JAK and SYK tyrosine phosphorylation activity is measured using the Z'-LYTE™ Technology developed by Invitrogen Corporation (Carlsbad, Calif.). For JAK1, JAK2 and JAK3 the Z'-LYTE™ Kinase Assay Kit-Tyr6 Peptide (part number PV4122) was used. The Z'-LYTE™ biochemical assay employs a fluorescence resonance energy transfer (FRET) coupled-enzyme format and is based on the differential sensitivity of phosphorylated and non-phosphorylated peptides to proteolitic cleavage. The assay uses a synthetic peptide substrate that is labelled with a donor fluorophore (coumarin) and an acceptor fluorophore (fluorescein) that make up a FRET pair. In the primary reaction (the Kinase Reaction), the kinase transfers the γ-phosphate of ATP to a single tyrosine residue on the substrate, while the presence of a kinase inhibitor in the primary reaction suppresses phosphorylation. In the secondary reaction (the Development Reaction), a site-specific protease (the Development Reagent) is added. The development buffer quenches the Kinase Reaction, while the protease recognizes and cleaves non-phosphorylated Z'-LYTE™ peptide substrate. Cleavage disrupts FRET between the donor and acceptor fluorophores on the non-phosphorylated substrate, while uncleaved, phosphorylated substrate maintains FRET.
(§2) To test the ability of candidate molecules to inhibit JAK tyrosine phosphorylation activity, molecules are reconstituted in 100% DMSO and serially diluted 1:10 in polypropylene v-bottom microtiter plates. The candidate molecules are then diluted 1:25 into kinase buffer and 2.5 μl transferred into duplicate wells of a 384 well low volume black microtiter assay plate (Corning, USA). The final DMSO concentration in the assay is 1%. The kinase reaction contains 2.5 μl of a candidate molecule, 5 μl of catalytic domain recombinant Kinase enzyme+Tyr peptide substrate (Invitrogen, CA) and 2.5 μl ATP (Invitrogen, CA). The kinase reaction is allowed to precede for 1 hour at room temperature. The protease reaction is initiated by the addition of 5 μl Development Reagent (Invitrogen, CA). After 1 hour incubation at room temperature the fluorescence is measured using a FlexStation plate reader (Molecular Devices, Sunnyvale, Calif.). The reader settings used are as follows: Fluorescence mode, endpoint, top read, excitation 400 nm, emission 445 nm and 520 nm. Auto Cutoff 435 nm and 515 nm, PMT sensitivity high, 6 reads per well. Inhibition of JAK activity is calculated as the percent phosphorylation of substrate in the presence of inhibitor compared to the percent phosphorylation of substrate in the absence of inhibitor. IC50's were derived using Xlfit 4.3 (IDBS, UK), 4 parameter logistic model 205: Y=(A+((B−A)/(1+((C/x)^D)))).

JAK2 = biological target: T2, JAK2 (Homo sapiens, UniProt O60674); test: as above; settings: catalytic domain recombinant kinase, Tyr6 peptide
T2 construct: 5 μl of catalytic domain recombinant Kinase enzyme+Tyr peptide substrate (Invitrogen, CA); purchased Invitrogen
Protocol: as §1, §2

JAK1 = biological target: T3, JAK1 (Homo sapiens, UniProt P23458); test: as above; settings: catalytic domain recombinant kinase, Tyr6 peptide
T3 construct: 5 μl of catalytic domain recombinant Kinase enzyme+Tyr peptide substrate (Invitrogen, CA); purchased Invitrogen
Protocol: as §1, §2

[1] = biological target: T4, full length active recombinant SYK enzyme (Homo sapiens, UniProt P43405); test: SYK tyrosine phosphorylation activity, LANCE TR-FRET kinase assay; settings: 1 nM SYK, 100 μM ATP, 1 hour at room temperature
T4 construct: full length active recombinant SYK enzyme (Millipore, CA); purchased Millipore
Protocol: Potency of candidate molecules for inhibiting Syk tyrosine phosphorylation activity is assessed by measuring the ability of a test compound to inhibit Syk-mediated tyrosine phosphorylation of a Syk-specific substrate.
SYK tyrosine phosphorylation activity is measured using the LANCE™ Technology developed by Perkin Elmer Life and Analytical Sciences (Boston, Mass.). LANCE™ refers to homogeneous time resolved fluorometry applications using techniques such as time-resolved fluorescence resonance energy transfer assay (TR-FRET) (see generally for procedures in Perkin Elmer Application Note—How to Optimize a Tyrosine Kinase Assay Using Time Resolved Fluorescence-Based LANCE Detection, wwww.perkinelmer.com/lifesciences). The assay principle involves detection of a phosphorylated substrate using energy transfer from a phosphospecific europium-labeled antibody to streptavidin-allophycocyanin as an acceptor.
To test the ability of candidate molecules to inhibit SYK tyrosine phosphorylation activity, molecules are reconstituted in 30% DMSO and serially diluted 1:3 with the final dilution containing DMSO in the absence of the candidate molecule. The final DMSO concentration in the assay is 3%. Kinase assays are performed as a two part reaction. The first reaction is a kinase reaction that comprises a candidate molecule, full length active recombinant SYK enzyme (Millipore, CA) and biotin-labeled SYK-specific substrate biotin-[…]-OH. The second reaction involves termination of the kinase reaction and the simultaneous addition of the detection reagents-europium-labeled anti-phosphotyrosine reagent (Eu-W1024-PY100, Perkin Elmer, Boston, Mass.) and Streptavidin-Allophycocyanin detection reagent (SA-APC, Prozyme, CA). The kinase reaction is performed in a black U-bottom 96-well microtitre plate. The final reaction volume is 50 μL and contains a final concentration of 1 nM active SYK enzyme, 550 nM SYK-substrate, and 100 μM ATP diluted in a buffer containing 50 mM Tris pH 7.5, 5 mM MgCl2, and 1 mM DTT. The reaction is allowed to proceed for 1 hour at room temperature. The stop buffer contains 100 mM Tris pH 7.5, 300 mM NaCl2, 20 mM EDTA, 0.02% Brij35, and 0.5% BSA. The detection reagents are added to the reaction mixture at the following dilutions—1:500 for Eu-W1024-PY100 and 1:250 for SA-APC. The kinase reaction is terminated by the addition of 50 μL stop buffer containing the detection reagents. The detection is allowed to proceed for 1 hr at room temperature. Detection of the phosphorolated substrate in the absence and presence of inhibitors is measured in the TR-FRET instrument, Analyst HT (Molecular Probes, Sunnyvale, Calif.) and the condition for measurements are set up using CriterionHost Release 2.0 (Molecular Probes, Sunnyvale, Calif.). The settings used are a follows: excitation 360 nm, emission 665-7.5 nm, beam splitter 350 nm 50/50, flash 100 pulses, delay 60 us, integration 400 us, z-height 2 mm. Inhibition of SYK-tyrosine kinase activity is calculated as the maximum response observed in the presence of inhibitor, compared to that in the absence of inhibitor. IC50s are derived by non-linear regression analysis.

T3 sequence (P23458 875-1153 limits assumed): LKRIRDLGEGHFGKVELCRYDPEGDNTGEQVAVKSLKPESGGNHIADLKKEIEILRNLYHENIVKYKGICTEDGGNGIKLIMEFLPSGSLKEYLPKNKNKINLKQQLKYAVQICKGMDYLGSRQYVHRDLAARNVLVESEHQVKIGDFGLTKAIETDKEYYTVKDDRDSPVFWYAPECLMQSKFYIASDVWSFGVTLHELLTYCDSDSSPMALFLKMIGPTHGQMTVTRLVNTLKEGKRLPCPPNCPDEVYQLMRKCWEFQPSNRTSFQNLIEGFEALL
T1 sequence (P52333 822-1111 limits assumed): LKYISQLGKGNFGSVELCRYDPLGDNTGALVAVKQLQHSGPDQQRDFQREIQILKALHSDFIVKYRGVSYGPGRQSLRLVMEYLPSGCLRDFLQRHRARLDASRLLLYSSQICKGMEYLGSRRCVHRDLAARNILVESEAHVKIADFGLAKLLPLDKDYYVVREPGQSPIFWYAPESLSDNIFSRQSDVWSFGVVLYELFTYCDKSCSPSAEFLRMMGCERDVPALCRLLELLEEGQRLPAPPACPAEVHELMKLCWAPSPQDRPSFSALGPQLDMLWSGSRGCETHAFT
T2 sequence (O60674 849-1124 limits assumed): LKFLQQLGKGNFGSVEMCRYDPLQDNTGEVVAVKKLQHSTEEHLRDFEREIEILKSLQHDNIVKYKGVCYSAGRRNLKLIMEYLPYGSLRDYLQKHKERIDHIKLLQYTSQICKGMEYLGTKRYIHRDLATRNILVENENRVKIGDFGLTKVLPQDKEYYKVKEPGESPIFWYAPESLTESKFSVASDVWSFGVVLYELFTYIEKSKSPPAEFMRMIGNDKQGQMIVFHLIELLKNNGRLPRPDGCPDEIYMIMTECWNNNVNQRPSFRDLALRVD

Row | SMILES | JAK3 IC50 potency class (JAK3) | JAK2 IC50 potency class (JAK2) | JAK1 IC50 potency class (JAK1) | IC50 [1]
1 | CCS(=O)(=O)N1CCC(c2ccc(Nc3ncc(C(N)=O)c(NC4CC4)n3)cc2)CC1 [Compound 1, 4-(cyclopropylamino)-2-((4-(1-(ethylsulfonyl)piperidin-4-yl)phenyl)amino)pyrimidine-5-carboxamide] | ++++ (0.01 uM<IC50<0.001 uM) | ++++ (0.01 uM<IC50<0.001 uM) | +++ (0.10 uM<IC50<0.01 uM) | +++ (0.10 uM<IC50<0.01 uM)
2 | NC(=O)c1cnc(Nc2ccc(C3CCN(S(=O)(=O)C4CC4)CC3)cc2)nc1NC1CC1 [Compound 2, 4-(cyclopropylamino)-2-((4-(1-(cyclopropylsulfonyl)piperidin-4-yl)phenyl)amino)pyrimidine-5-carboxamide] | ++++ (0.01 uM<IC50<0.001 uM) | ++++ (0.01 uM<IC50<0.001 uM) | +++ (0.10 uM<IC50<0.01 uM) | +++ (0.10 uM<IC50<0.01 uM)
3 | CC(C)S(=O)(=O)N1CCC(c2ccc(Nc3ncc(C(N)=O)c(NC4CC4)n3)cc2)CC1 [Compound 3, 4-(cyclopropylamino)-2-((4-(1-(isopropylsulfonyl)piperidin-4-yl)phenyl)amino)pyrimidine-5-carboxamide] | ++++ (0.01 uM<IC50<0.001 uM) | ++++ (0.01 uM<IC50<0.001 uM) | +++ (0.10 uM<IC50<0.01 uM) | +++ (0.10 uM<IC50<0.01 uM)
4 | CC(C)N1CCC(c2ccc(Nc3ncc(C(N)=O)c(NC4CC4)n3)cc2)CC1 [Compound 4, 4-(cyclopropylamino)-2-((4-(1-isopropylpiperidin-4-yl)phenyl)amino)pyrimidine-5-carboxamide] | ++++ (0.01 uM<IC50<0.001 uM) | +++ (0.10 uM<IC50<0.01 uM) | +++ (0.10 uM<IC50<0.01 uM) | +++ (0.10 uM<IC50<0.01 uM)
5 | CN(C)C(=O)N1CCC(c2ccc(Nc3ncc(C(N)=O)c(NC4CC4)n3)cc2)CC1 [Compound 5, 4-(cyclopropylamino)-2-((4-(1-(dimethylcarbamoyl)piperidin-4-yl)phenyl)amino)pyrimidine-5-carboxamide] | ++++ (0.01 uM<IC50<0.001 uM) | ++++ (0.01 uM<IC50<0.001 uM) | +++ (0.10 uM<IC50<0.01 uM) | +++ (0.10 uM<IC50<0.01 uM)
6 | NC(=O)c1cnc(Nc2ccc(C3CCN(C(=O)N4CCOCC4)CC3)cc2)nc1NC1CC1 [Compound 6, 4-(cyclopropylamino)-2-((4-(1-(morpholine-4-carbonyl)piperidin-4-yl)phenyl)amino)pyrimidine-5-carboxamide] | ++++ (0.01 uM<IC50<0.001 uM) | ++++ (0.01 uM<IC50<0.001 uM) | +++ (0.10 uM<IC50<0.01 uM) | +++ (0.10 uM<IC50<0.01 uM)
7 | CCC(=O)N1CCC(c2ccc(Nc3ncc(C(N)=O)c(NC4CC4)n3)cc2)CC1 [Compound 7, 4-(cyclopropylamino)-2-((4-(1-propionylpiperidin-4-yl)phenyl)amino)pyrimidine-5-carboxamide] | ++++ (0.01 uM<IC50<0.001 uM) | ++++ (0.01 uM<IC50<0.001 uM) | +++ (0.10 uM<IC50<0.01 uM) | +++ (0.10 uM<IC50<0.01 uM)
8 | NC(=O)c1cnc(Nc2ccc(C3CCN(C4CCCC4)CC3)cc2)nc1NC1CC1 [Compound 8, 2-((4-(1-cyclopentylpiperidin-4-yl)phenyl)amino)-4-(cyclopropylamino)pyrimidine-5-carboxamide] | ++++ (0.01 uM<IC50<0.001 uM) | ++++ (0.01 uM<IC50<0.001 uM) | +++ (0.10 uM<IC50<0.01 uM) | +++ (0.10 uM<IC50<0.01 uM)
9 | CC(=O)N1CC(c2ccc(Nc3ncc(C(N)=O)c(NC4CC4)n3)cc2)C1 [Compound 71, 2-(4-(1-acetylazetidin-3-yl)phenylamino)-4-(cyclopropylamino)pyrimidine-5-carboxamide] |  |  |  | +++ (0.10 uM<IC50<0.01 uM)
10 | COCC(=O)N1CC(c2ccc(Nc3ncc(C(N)=O)c(NC4CC4)n3)cc2)C1 [Compound 72, 4-(cyclopropylamino)-2-(4-(1-(2-methoxyacetyl)azetidin-3-yl)phenylamino)pyrimidine-5-carboxamide] |  |  |  | +++ (0.10 uM<IC50<0.01 uM)
11 | CS(=O)(=O)N1CC(c2ccc(Nc3ncc(C(N)=O)c(NC4CC4)n3)cc2)C1 [Compound 73, 4-(cyclopropylamino)-2-(4-(1-(methylsulfonyl)azetidin-3-yl)phenylamino)pyrimidine-5-carboxamide] |  |  |  | +++ (0.10 uM<IC50<0.01 uM)
12 | CN(C)S(=O)(=O)N1CC(c2ccc(Nc3ncc(C(N)=O)c(NC4CC4)n3)cc2)C1 [Compound 74, 4-(cyclopropylamino)-2-(4-(1-(N,N-dimethylsulfamoyl)azetidin-3-yl)phenylamino)pyrimidine-5-carboxamide] |  |  |  | +++ (0.10 uM<IC50<0.01 uM)
13 | CCS(=O)(=O)N1CC(c2ccc(Nc3ncc(C(N)=O)c(NC4CC4)n3)cc2)C1 [Compound 75, 4-(cyclopropylamino)-2-(4-(1-(ethylsulfonyl)azetidin-3-yl)phenylamino)pyrimidine-5-carboxamide] |  |  |  | +++ (0.10 uM<IC50<0.01 uM)
14 | CN(C)C(=O)C1CN(c2ccc(Nc3ncc(C(N)=O)c(NC4CC4)n3)cc2)C1 [Compound 76, 4-(cyclopropylamino)-2-(4-(3-(dimethylcarbamoyl)azetidin-1-yl)phenylamino)pyrimidine-5-carboxamide] |  |  |  | ++ (1.0 uM<IC50<0.10 uM)
15 | CN(C)C(=O)C1CN(c2ccc(Nc3ncc(C(N)=O)c(NC4CC4)n3)cc2F)C1 [Compound 77, 4-(cyclopropylamino)-2-(4-(3-(dimethylcarbamoyl)azetidin-1-yl)-3-fluorophenylamino)pyrimidine-5-carboxamide] |  |  |  | ++ (1.0 uM<IC50<0.10 uM)
